Measured values from patent US5591757A, “Dihydropyridine composition” (Yamanouchi Pharmaceutical Co., Ltd., priority 1984, dated 1997).
Where a name gives a salt, the structure may show the parent alone. Read-outs that look alike come from different tables or passages of the source.

Columns and labels:
[1] = system: mean arterial blood pressure (MBP) and coronary blood flow (Cor. BF); assay: Hemodynamic effects in anesthetized open-chest dogs (i.v.); assay type: in vivo, mongrel dogs; settings: Canis lupus familiaris, anesthetized dogs; for change in vivo at 0.3 mg/kg: 0.3 mg/kg iv; for change in vivo at 0.03 mg/kg: 0.03 mg/kg iv; for change in vivo at 0.1 mg/kg: 0.1 mg/kg iv; for change in vivo at 1 mg/kg: 1.0 mg/kg iv
Experimental: Mongrel dogs of either sex were anesthetized with pentobarbital sodium (30 mg/kg iv). The animals were artificially ventilated with room air. The chest was opened at the left 4th intercostal space. Mean arterial blood pressure (MBP), heart rate (HR), left ventricular pressure (LVP), max. dLVP/dt, mean pulmonary arterial blood pressure (MPAP), cardiac output (CO) and coronary blood flow (Cor. BF) were measured. The test compounds were injected into the femoral vein. […] BF from control values induced by intravenous injection of test compounds.

Beta-adrenoceptor [2] = target: T1, Beta-adrenoceptor (Rattus norvegicus, UniProt P18090); assay: Beta-adrenoceptor blocking effect in reserpinized rats (isoproterenol chronotropy); assay type: in vivo, male Wistar rats; set-up: The rats were anesthetized with pentobarbital sodium; from tissue; host or cells: heart in the living anesthetized male Wistar rat (reserpine-pretreated, vagotomized); settings: isoproterenol 0.1 μg/kg iv, cumulative iv doses, read-out: Beta-Blocking ED50 (50% blockade of positive chronotropic response to isoproterenol)
Experimental: (§1) The rats were pretreated with reserpine (8 mg/kg ip), 18 hr before experiments. […] The heart rate was measured with a cardiotachometer triggered by the QRS of the ECG (lead II) and recorded on a polygraph. After the Control response to isoproterenol at a dose of 0.1 μg/kg iv was obtained, the test compound was injected iv in increasing doses at 20 min intervals.

left coronary artery = assay: Coronary vasodilating effects in dogs (intracoronary); assay type: in vivo, mongrel dogs; settings: for Duration of action of coronary vasodilating effect: intracoronary (ia)
Experimental: Mongrel dogs of either sex were anesthetized and ventilated as previously described. A thoracotomy was performed at the 4th intercostal space. Following an intravenous injection of heprin (1000 units/kg), blood from the distal end of the cannulated carotid artery was pumped into circumflex branch of the left coronary artery using a servocontrolled peristaltic pump which maintained a constant perfusion pressure of 120 mmHg by means of a pump controller. An electromagnetic flow probe was inserted in the circit to record blood flow through the cannulated coronary artery. The test compounds were administered directly into the rubber tubing connected close to the coronary artery cannula.

Beta-adrenoceptor [3] = target: T1, Beta-adrenoceptor; assay: Intrinsic sympathomimetic activity (ISA) in reserpinized rats; assay type: in vivo, male Wistar rats; set-up: The rats were anesthetized with pentobarbital sodium; from tissue; host or cells: heart in the living anesthetized male Wistar rat (reserpine-pretreated, vagotomized); settings: reserpine-pretreated rats, iv
Experimental: as §1
In this series of experiments, intrinsic sympathomimetic activity (ISA) was also evaluated.

[4] = read-out: percent change of Cor. BF from control
[5] = read-out: percent change of MBP from control

T1 sequence (P18090 whole entry): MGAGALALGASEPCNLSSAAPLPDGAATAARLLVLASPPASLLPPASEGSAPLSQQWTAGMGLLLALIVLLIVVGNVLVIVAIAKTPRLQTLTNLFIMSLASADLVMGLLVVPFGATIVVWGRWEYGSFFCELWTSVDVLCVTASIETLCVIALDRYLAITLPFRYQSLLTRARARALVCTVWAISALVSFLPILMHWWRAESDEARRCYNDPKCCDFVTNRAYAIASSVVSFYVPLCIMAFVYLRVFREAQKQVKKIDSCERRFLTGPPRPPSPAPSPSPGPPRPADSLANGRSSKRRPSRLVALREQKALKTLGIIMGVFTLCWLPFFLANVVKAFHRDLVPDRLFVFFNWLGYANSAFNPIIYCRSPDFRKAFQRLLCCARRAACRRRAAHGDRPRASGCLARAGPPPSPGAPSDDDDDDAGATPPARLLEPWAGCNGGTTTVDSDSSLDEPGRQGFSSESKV

Structure (SMILES) | change in vivo at 0.3 mg/kg [1, 4] [%] | change in vivo at 0.3 mg/kg [1, 5] [%] | ED50 (Beta-adrenoceptor [2]) [mg/kg] | ED100 pap (dose for 100% increase of Cor. BF; maximum response to papaverine 300 μg ia = 100%) (left coronary artery) [μg ia] | Duration of action of coronary vasodilating effect (left coronary artery) [min] | ISA (increase in HR) (Beta-adrenoceptor [3]) | change in vivo at 0.03 mg/kg [1, 4] [%] | change in vivo at 0.03 mg/kg [1, 5] [%] | change in vivo at 0.1 mg/kg [1, 4] [%] | change in vivo at 0.1 mg/kg [1, 5] [%] | change in vivo at 1 mg/kg [1, 4] [%] | change in vivo at 1 mg/kg [1, 5] [%]
COCCOC(=O)C1=C(C)NC(C)=C(C(=O)OCCCCCCNCC(O)COc2ccccc2)C1c1cccc([N+](=O)[O-])c1 (stereo not drawn) [Example 22, 6-(2-hydroxy-3-phenoxy-propylamino)hexyl 2-methoxyethyl-2,6-dimethyl-4-(m-nitrophenyl-3,5-dicarboxylate hydrochloride] | 118 | -22 | 0.82 | 128 | 60 | - |  |  |  |  |  | 
COC(=O)C1=C(C)NC(C)=C(C(=O)OCCCCCCCCCCNCC(O)COc2ccccc2)C1c1cccc([N+](=O)[O-])c1.Cl (stereo not drawn) [Example 13, 10-(2-hydroxy-3-phenoxy-propylamino)decyl methyl 2,6-dimethyl-4-(m-nitro-phenyl)-1,4-dihydropyridine-3,5-dicarboxylate hydrochloride] |  |  | 0.72 | 12 | 60 | + (an increase in HR by 10 to 19 beats/min was observed) | 102 | -21 |  |  |  | 
COC(=O)C1=C(C)NC(C)=C(C(=O)OCCCCNCC(O)COc2ccccc2)C1c1cccc([N+](=O)[O-])c1.Cl (stereo not drawn) [Example 11, 4-(2-hydroxy-3-phenoxy-propylamino)butyl methyl 2,6-dimethyl-4-(m-nitro-phenyl)-1,4-dihydropyridine-3,5-dicarboxylate hydrochloride] |  |  | 0.64 | 150 | 60 | ++ (an increase in HR by 20 to 29 beats/min was observed) |  |  | 35 | -16 | 193 | -41
COC(=O)C1=C(C)NC(C)=C(C(=O)OCCCCCCNCC(O)COc2ccccc2C#N)C1c1cccc([N+](=O)[O-])c1.Cl (stereo not drawn) [Example 30, 6-[3-(o-cyanophenoxy)-2-hydroxypropylamino]hexyl methyl 2,6-dimethyl-4-(m-nitrophenyl)-1,4-di-hydropyridine-3,5-dicarboxylate hydrochloride] |  |  | 0.79 |  |  | - |  |  | 12 | -21 |  | 
COC(=O)C1=C(C)NC(C)=C(C(=O)OCCCCCCNCC(O)COc2ccccc2)C1c1ccccc1OC.Cl (stereo not drawn) [Example 47, 6-(2-hydroxy-3-phenoxypropylamino)hexyl methyl 2,6-dimethyl-4-(o-methoxyphenyl)-1,4-dihydropyridine-3,5-dicarboxylate hydrochloride] | 30 | -34 | 0.11 | 245 | > 60 | +++ (an increase in HR by above 30 beats/min) |  |  |  |  | 57 | -44
CC1=C(C(=O)OCCCCCCNCC(O)COc2ccccc2)C(c2cccc([N+](=O)[O-])c2)C(C(=O)OC(C)(C)C)=C(C)N1.Cl (stereo not drawn) [Example 21, tert-butyl 6-(2-hydroxy-3-phenoxypropylamino)hexyl 2,6-dimethyl-4-(m-nitrophenyl)-1,4-dihydropyridine-3,5-dicarboxylate hydrochloride] |  |  | 1.01 | 137 | 60 | + (an increase in HR by 10 to 19 beats/min was observed) |  |  |  |  | 34 | -28
COC(=O)C1=C(C)NC(C)=C(C(=O)OCCCCCCNCC(O)COc2ccccc2Cl)C1c1cccc([N+](=O)[O-])c1 (stereo not drawn) [Example 32, 6-[3-(o-chlorophenoxy)-2-hydroxypropylamino]hexyl methyl 2,6-dimethyl-4-(m-nitrophenyl)-1,4-dihyrdopyridine-3,5-dicarboxylate hydrochloride] | 93 | -36 | 1.18 |  |  | - |  |  | 35 | -18 |  | 
COC(=O)C1=C(C)NC(C)=C(C(=O)OCCCCCCNCC(O)COc2ccccc2)C1c1cccc(OC)c1 (stereo not drawn) [Example 46, 6-(2-hydroxy-3-phenoxypropylamino)hexyl methyl 2,6-dimethyl-4-(m-methoxyphenyl)-1,4-dihyrdopyridine-3,5-dicarboxylate hydrochloride] | 36 | -21 | 0.66 | 98 | > 60 | + (an increase in HR by 10 to 19 beats/min was observed) |  |  |  |  | 78 | -45
COC(=O)C1=C(C)NC(C)=C(C(=O)OCCCCCCNCC(O)COc2ccccc2)C1c1cccc(C)c1.Cl (stereo not drawn) [Example 48, 6-(2-hydroxy-3-phenoxypropylamino)hexyl methyl 2,6-dimethyl-4-(m-methylphenyl)-1,4-dihydro-pyridine-3,5-dicarboxylate hydrochloride] | 71 | -20 | 0.68 | 76 | 60 | - |  |  |  |  | 92 | -43
COC(=O)C1=C(C)NC(C)=C(C(=O)OCCCCCCNCC(O)COc2ccccc2)C1c1ccccc1[N+](=O)[O-] (stereo not drawn) [Example 41, 6-(2-hydroxy-3-phenoxypropylamino)hexyl methyl 2,6-dimethyl-4-(o-nitrophenyl)-1,4-dihydropyridine-3,5-dicarboxylate] | 45 | -34 | 0.58 | 43 | > 60 | +++ (an increase in HR by above 30 beats/min) |  |  |  |  |  | 
COC(=O)C1=C(C)NC(C)=C(C(=O)OCCCCCCNCC(O)COc2ccccc2)C1c1cccc(Cl)c1.Cl (stereo not drawn) [Example 43, 6-(2-hydroxy-3-phenoxypropylamino)hexyl methyl 4-(m-chlorophenyl)-2,6-dimethyl-1,4-dihydro-pyridine-3,5-dicarboxylate hydrochloride] | 44 | -22 | 0.87 | 56 | > 60 | - |  |  |  |  |  | 
CCOC(=O)C1=C(C)NC(C)=C(C(=O)OCCCCCCNCC(O)COc2ccccc2)C1c1cccc([N+](=O)[O-])c1 (stereo not drawn) [Example 18, Ethyl 6-(2-hydroxy-3-phenoxy/propylamino)hexyl 2,6-dimethyl-4-(m-nitrophenyl)-1,4-dihydroxypyridine-3,5-dicarboxylate] | 31 | -22 | 1.25 | 67 | > 60 | - |  |  |  |  |  | 
COC(=O)C1=C(C)NC(C)=C(C(=O)OCCCCCCNCC(O)COc2ccccc2)C1c1cccc(C(F)(F)F)c1 (stereo not drawn) [Example 7, 6-(2-hydroxy-3-phenoxypropylamino)hexyl methyl 2,6-dimethyl-4-(m-trifluoromethylphenyl)-1,4-dihydropyridin-3,5-dicarboxylate] |  |  | 1.93 | 100 | > 60 | - |  |  |  |  | 24 | -20
